Data from patent US20200031778A1, “NOVEL 5-SUBSTITUTED IMIDAZOLYLMETHYL DERIVATIVES” (Bayer CropScience Aktiengesellschaft, priority 2016, published 2020).

Assay: Log P by HPLC on reversed phase columns (EEC directive 79/831 Annex V.A8; methods [a], [b], [c])
Assay type: physicochemical
In short: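 Reversed-phase HPLC with LC-UV detection, 10→95% acetonitrile linear gradient; aqueous eluent 0.1% formic acid [a], 0.001 M ammonium acetate, neutral [b], or 0.1% phosphoric acid [c]. Calibrated against C3–C16 alkan-2-ones of known Log P by retention-time linear interpolation; multiple values within a method separated by "+".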

Row | LogP | chromatographic logP (reversed phase HPLC column, method [a]: LC-UV, acidic range, 0.1% formic acid in water and acetonitrile as eluent (linear gradient from 10% to 95% acetonitrile)) | Compound
1 | 1.99^[a] |  | OC(Cn1cncc1Cl)c1ccc(Oc2ccccc2)cc1F (stereo not drawn) [I-30]
2 | 2.63^[a] |  | CC(O)(Cn1cncc1Cl)c1ccc(Oc2ccc(Cl)cc2)nc1C(F)(F)F (stereo not drawn) [I-180]
3 | 2.66^[a] |  | CCCC(O)(Cn1cncc1C#N)c1ccccc1C(F)(F)F (stereo not drawn) [I-313]
4 | 2.40^[a] |  | N#Cc1cncn1CC(O)(c1cccc(Cl)c1F)C1(Cl)CC1 (stereo not drawn) [I-553]
5 | 3.03^[a] |  | N#Cc1cncn1CC(O)(c1ccc(C#CC2CC2)cc1Cl)C1(F)CC1 (stereo not drawn) [I-639]
6 | 2.27^[a] |  | N#Cc1cncn1CC(O)(c1c(F)cc(F)cc1Br)C1(F)CC1 (stereo not drawn) [I-547]
7 | 4.34^[a] |  | COC(Cn1cncc1C(F)(F)F)c1ccc(Oc2ccc(Cl)cc2)cc1F (stereo not drawn) [I-93]
8 | 2.58^[a] |  | N#Cc1cncn1CC(O)(c1cc(F)c(F)c(Br)c1)C1(F)CC1 (stereo not drawn) [I-471]
9 | 2.75^[a] |  | OC(Cn1cncc1Cl)c1ccc(Oc2ccc(C(F)(F)F)cc2)c(Br)c1 (stereo not drawn) [I-12]
10 | 2.96^[a] |  | N#Cc1cncn1CC(O)(C#Cc1ccc(Cl)cc1)C1(Cl)CC1 (stereo not drawn) [I-322]
11 | 2.66^[a] |  | N#Cc1cncn1CC(O)(c1cc(Cl)cc(Cl)c1Cl)C1(F)CC1 (stereo not drawn) [I-612]
12 | 2.78^[a] |  | N#Cc1cncn1CC(O)(c1ccc(Cl)cc1C(F)(F)F)C1CC1 (stereo not drawn) [I-464]
13 | 3.06^[a] |  | CC(O)(Cn1cncc1Br)c1ccc(Oc2ccc(Br)cc2)cc1Br (stereo not drawn) [I-184]
14 | 2.77^[a] |  | N#Cc1cncn1CC(O)(c1ccc(Cl)cc1Cl)C1CC1 (stereo not drawn) [I-304]
15 | 2.18^[a] |  | N#Cc1cncn1CC(O)(c1ccc(F)c(F)c1F)C1(F)CC1 (stereo not drawn) [I-634]
16 | 2.44^[a] |  | N#Cc1cncn1CC(O)(C=CCC(Cl)CCl)C1(F)CC1 (stereo not drawn) [I-680]
17 | 3.99^[a] |  | CC(C)(C)C#Cc1ccc(C(O)(Cn2cncc2C#N)C2(Cl)CC2)c(Cl)c1 (stereo not drawn) [I-657]
18 | 2.82^[a] |  | OC(Cn1cncc1Cl)c1ccc(Oc2ccc(OC(F)(F)F)cc2)c(Br)c1 (stereo not drawn) [I-05]
19 | 2.80^[a] |  | CC(O)(Cn1cncc1Br)c1ccc(Oc2ccc(Cl)cc2)cc1Br (stereo not drawn) [I-170]
20 | 2.70^[a] |  | CC(C)CC(O)(Cn1cncc1C#N)c1ccc(Cl)cc1 (stereo not drawn) [I-285]
21 | 2.45^[a] |  | OC(Cn1cncc1Cl)c1ccc(Oc2ccc(Cl)cc2)cc1C(F)F (stereo not drawn) [I-71]
22 | 2.56^[a] |  | N#Cc1cncn1CC(O)(CC1CC1)c1ccc(F)c(Br)c1 (stereo not drawn) [I-496]
23 | 2.88^[a] |  | N#Cc1cncn1CC(O)(c1ccc(C2CC2)cc1Cl)C1(Cl)CC1 (stereo not drawn) [I-332]

Row | LogP | chromatographic logP (reversed phase HPLC column, method [a]: LC-UV, acidic range, 0.1% formic acid in water and acetonitrile as eluent (linear gradient from 10% to 95% acetonitrile)) | Compound
24 | 2.78^[a] |  | CC(=O)c1cncn1CC(C)(O)c1cnc(Oc2ccc(Cl)cc2)cc1C(F)(F)F (stereo not drawn) [I-250]
25 | 2.90^[a] |  | CC(C)(C)CC(O)(Cn1cncc1C#N)c1ccc(F)cc1 (stereo not drawn) [I-226]
26 | 2.73^[a] |  | CCCC(O)(Cn1cncc1C#N)c1ccc(F)cc1Cl (stereo not drawn) [I-402]
27 | 2.63^[a] |  | N#Cc1cncn1CC(O)c1ccc(Oc2ccc(Br)cn2)cc1Cl (stereo not drawn) [I-70]
28 | 2.80^[a] |  | N#Cc1cncn1CC(O)(c1cc(Cl)c(Cl)cc1F)C1(Cl)CC1 (stereo not drawn) [I-621]
29 | 2.41^[a] |  | N#Cc1cncn1CC(O)(c1ccc(F)c(F)c1Cl)C1(Cl)CC1 (stereo not drawn) [I-628]
30 | 2.28^[a] |  | N#Cc1cncn1CC(O)(c1ccc(F)cc1F)C1(Cl)CC1 (stereo not drawn) [I-355]
31 | 3.11^[a] |  | N#Cc1cncn1CC(O)(C#CCC1CCCCC1)C1(F)CC1 (stereo not drawn) [I-539]
32 | 2.04^[a] |  | N#Cc1cncn1CC(O)(c1ccc(F)cc1)C1(F)CC1 (stereo not drawn) [I-351]
33 | 2.62^[a] |  | N#Cc1cncn1CC(O)(C#CC1CCCC1)CC1CC1 (stereo not drawn) [I-452]
34 | 4.05^[a] |  | CC(C)(C)C(O)(C=CCC1CCCCC1)Cn1cncc1C#N (stereo not drawn) [I-673]
35 | 2.35^[a] |  | N#Cc1cncn1CC(O)(c1ccc(F)c(Br)c1F)C1(F)CC1 (stereo not drawn) [I-625]
36 | 4.16^[a] |  | CCOC(Cn1cncc1Br)c1ccc(Oc2ccc(Br)cc2)cc1Br (stereo not drawn) [I-57]
37 | 2.19^[a] |  | CC1(C(O)(Cn2cncc2C#N)c2ccc(F)cc2)CC1 (stereo not drawn) [I-450]
38 | 2.68^[a] |  | N#Cc1cncn1CC(O)(c1cc(Cl)c(Cl)cc1F)C1(F)CC1 (stereo not drawn) [I-589]
39 | 2.82^[a] |  | OC(Cn1cncc1Cl)c1ccc(Oc2ccc(C(F)(F)F)cc2)cc1Cl (stereo not drawn) [I-09]
40 |  | 0.92 | N#Cc1cncn1CC(=O)c1ccco1 [IX-146]
41 | 2.47^[a] |  | N#Cc1cncn1CC(O)(c1cc(Br)c(F)cc1F)C1(F)CC1 (stereo not drawn) [I-573]
42 | 2.93^[a] |  | N#Cc1cncn1CC(O)(CC1CC1)c1cc(Cl)cc(Br)c1 (stereo not drawn) [I-531]
43 | 4.15^[a] |  | COC(Cn1cncc1C#N)c1ccc(Oc2ccc(Cl)cc2)cc1C(F)(F)F (stereo not drawn) [I-81]
44 | 1.11^[a] |  | C#CC(O)(Cn1cncc1C#N)C1(F)CC1 (stereo not drawn) [I-654]
45 | 2.13^[a] |  | CC(O)(Cn1cncc1Cl)c1ccc(Oc2ccc(Cl)nc2)cc1Cl (stereo not drawn) [I-176]
46 | 2.28^[a] |  | CC(O)(Cn1cncc1Cl)c1ccc(Oc2ccc(Cl)cn2)cc1Cl (stereo not drawn) [I-181]

Row | LogP | chromatographic logP (reversed phase HPLC column, method [a]: LC-UV, acidic range, 0.1% formic acid in water and acetonitrile as eluent (linear gradient from 10% to 95% acetonitrile)) | Compound
47 | 1.73^[a] |  | OC(Cn1cncc1F)(c1ccc(Cl)cc1Br)C1(F)CC1 (stereo not drawn) [I-431]
48 | 2.32^[a] |  | N#Cc1cncn1CC(O)(c1c(F)cccc1Cl)C1(Cl)CC1 (stereo not drawn) [I-339]
49 | 3.80^[a] |  | OC(Cn1cncc1C(F)(F)F)c1ccc(Oc2ccc(Cl)cc2)cc1Cl (stereo not drawn) [I-39]
50 | 2.47^[a] |  | N#Cc1cncn1CC(O)(c1ccc(F)cc1C(F)(F)F)C1CC1 (stereo not drawn) [I-467]
51 | 3.25^[a] |  | N#Cc1cncn1CC(O)(c1ccc(C#CC2CC2)cc1Cl)C1(Cl)CC1 (stereo not drawn) [I-361]
52 | 3.25^[a] |  | CC(O)(Cn1cncc1Cl)c1ccc(Oc2ccc(I)cc2)cc1Br (stereo not drawn) [I-187]
53 | 2.47^[a] |  | CCCCC(O)(Cn1cncc1C#N)c1ccc(F)cc1 (stereo not drawn) [I-228]
54 | 2.50^[a] |  | Cc1ccc(Oc2ccc(C(O)Cn3cncc3Cl)c(Cl)c2)cc1 (stereo not drawn) [I-02]
55 | 1.62^[a] |  | N#Cc1cncn1CC(O)c1ccccc1Br (stereo not drawn) [I-140]
56 | 4.16^[a] |  | CCOC(Cn1cncc1Br)c1ccc(Oc2ccc(Cl)cc2)cc1C(F)(F)F (stereo not drawn) [I-33]
57 | 2.74^[a] |  | N#Cc1cncn1CC(O)(c1ccc(C2CC2)cc1Cl)C1(F)CC1 (stereo not drawn) [I-392]
58 | 2.73^[a] |  | CCCCC(O)(Cn1cncc1C#N)c1ccc(F)cc1F (stereo not drawn) [I-262]
59 | 3.73^[a] |  | CC(C)(C)c1ccc(C#CC(O)(Cn2cncc2C#N)C2(Cl)CC2)cc1 (stereo not drawn) [I-317]
60 | 3.39^[a] |  | CC(C)(C)C(O)(Cn1cncc1C#N)c1cc(Br)cc(Br)c1 (stereo not drawn) [I-490]
61 | 2.77^[a] |  | N#Cc1cncn1CC(O)c1ccc(Oc2ccc(C(F)F)cc2)nc1C(F)(F)F (stereo not drawn) [I-145]
62 | 3.11^[a] |  | CC(C)C(O)(Cn1cncc1C#N)c1ccc(C(F)(F)F)cc1Cl (stereo not drawn) [I-426]
63 | 2.39^[a] |  | OC(Cn1cncc1Cl)c1ccc(Oc2ccc(Cl)cc2)cc1F (stereo not drawn) [I-32]
64 | 2.29^[a] |  | N#Cc1cncn1CC(O)(CC1CC1)c1cc(F)cc(F)c1 (stereo not drawn) [I-502]
65 | 3.16^[a] |  | CC(C)(C)C(O)(Cn1cncc1C#N)c1ccc(Cl)c(Cl)c1 (stereo not drawn) [I-456]
66 | 2.33^[a] |  | N#Cc1cncn1CC(O)(c1cc(F)cc(F)c1Cl)C1(Cl)CC1 (stereo not drawn) [I-619]
67 | 2.59^[a] |  | N#Cc1cncn1CC(O)(c1cc(F)c(Cl)cc1Cl)C1(F)CC1 (stereo not drawn) [I-578]
68 | 1.98^[a] |  | N#Cc1cncn1CC(O)(c1ccc(F)cc1)C1CC1 (stereo not drawn) [I-411]
69 | 2.98^[a] |  | N#Cc1cncn1CC(O)(c1cc(Cl)c(Cl)cc1Cl)C1(Cl)CC1 (stereo not drawn) [I-562]

Row | LogP | chromatographic logP (reversed phase HPLC column, method [a]: LC-UV, acidic range, 0.1% formic acid in water and acetonitrile as eluent (linear gradient from 10% to 95% acetonitrile)) | Compound
70 | 2.39^[a] |  | N#Cc1cncn1CC(O)(c1c(F)ccc(Cl)c1Cl)C1(F)CC1 (stereo not drawn) [I-565]
71 | 2.45^[a] |  | C[Si](C)(C)C#CC(O)(Cn1cncc1C#N)C1(F)CC1 (stereo not drawn) [I-600]
72 | 1.57^[a] |  | N#Cc1cncn1CC(O)c1ccccc1Cl (stereo not drawn) [I-138]
73 | 3.00^[a] |  | N#Cc1cncn1CC(O)(CCC1CCCC1)C1(F)CC1 (stereo not drawn) [I-598]
74 | 3.29^[a] |  | CCCC#Cc1ccc(C(O)(Cn2cncc2C#N)C2(F)CC2)c(F)c1 (stereo not drawn) [I-645]
75 | 3.23^[a] |  | CC(O)(Cn1cncc1C#N)c1cnc(Oc2ccc(C(F)(F)F)cc2)cc1C(F)(F)F (stereo not drawn) [I-218]
76 | 3.31^[a] |  | CC(C)(C)C(O)(Cn1cncc1C#N)c1cc(F)c(Cl)c(Cl)c1 (stereo not drawn) [I-545]
77 | 2.03^[a] |  | N#Cc1ccc(Oc2ccc(C(O)Cn3cncc3Cl)c(Cl)c2)cc1 (stereo not drawn) [I-06]
78 | 2.10^[a] |  | COc1ccc(C(O)(CC2CC2)Cn2cncc2C#N)c(Cl)n1 (stereo not drawn) [I-548]
79 | 3.73^[a] |  | CC(O)(Cn1cncc1C#N)c1ccc(Oc2ccc(Br)cc2)cc1Br (stereo not drawn) [I-219]
80 | 3.57^[a] |  | CC(C)(C)C#Cc1ccc(C(O)(Cn2cncc2C#N)C2(F)CC2)c(F)c1 (stereo not drawn) [I-646]
81 | 2.78^[a] |  | N#Cc1cncn1CC(O)(c1ccc(C(F)(F)F)cc1Br)C1(F)CC1 (stereo not drawn) [I-435]
82 | 2.36^[a] |  | N#Cc1cncn1CC(O)(CC1CC1)c1cc(F)c(F)cc1F (stereo not drawn) [I-514]
83 | 3.15^[a] |  | N#Cc1cncn1CC(O)c1ccc(Oc2ccc(S(F)(F)(F)(F)F)cc2)nc1Cl (stereo not drawn) [I-68]
84 | 2.43^[a] |  | N#Cc1cncn1CC(O)c1cnc(Oc2ccc(Br)cc2)cc1C(F)F (stereo not drawn) [I-134]
85 | 3.12^[a] |  | N#Cc1cncn1CC(O)(c1ccc(Cl)cc1F)C1CCCC1 (stereo not drawn) [I-458]
86 | 2.80^[a] |  | CCCCC(O)(Cn1cncc1C#N)c1ccccc1Cl (stereo not drawn) [I-282]
87 | 2.88^[a] |  | OC(Cn1cncc1Br)c1ccc(Oc2ccc(I)cc2)cc1Cl (stereo not drawn) [I-28]
88 | 2.31^[a] |  | N#Cc1cncn1CC(O)(c1ccc(F)cc1Br)C1(F)CC1 (stereo not drawn) [I-357]
89 | 1.94^[a] |  | N#Cc1cncn1CC(O)(c1c(F)cccc1F)C1(F)CC1 (stereo not drawn) [I-520]
90 | 2.52^[a] |  | N#Cc1cncn1CC(O)(c1cc(Cl)cc(F)c1Cl)C1(F)CC1 (stereo not drawn) [I-571]
91 | 2.75^[a] |  | N#Cc1cncn1CC(O)(CC1CC1)c1ccc(Cl)cc1F (stereo not drawn) [I-442]
92 | 3.83^[a] |  | CC(O)(Cn1cncc1C(F)(F)F)c1ccc(Oc2ccc(Cl)cc2)cc1F (stereo not drawn) [I-205]

Row | Compound | LogP | chromatographic logP (reversed phase HPLC column, method [a]: LC-UV, acidic range, 0.1% formic acid in water and acetonitrile as eluent (linear gradient from 10% to 95% acetonitrile))
93 | N#Cc1cncn1CC(O)(c1cnc(Cl)cc1Br)C1(F)CC1 (stereo not drawn) [I-560] | 1.98^[a] | 
94 | N#Cc1cncn1CC(O)(c1ccc(Cl)nc1F)C1(F)CC1 (stereo not drawn) [I-552] | 1.96^[a] | 
95 | N#Cc1cncn1CC(O)(c1cnc(Cl)cc1Cl)C1(F)CC1 (stereo not drawn) [I-526] | 1.90^[a] | 
96 | N#Cc1cncn1CC(O)(c1ccc(Br)nc1Cl)C1(F)CC1 (stereo not drawn) [I-683] | 2.01^[a] | 
